Measurements taken from PubChem BioAssay (NCI).
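Tested at 5 concentrations; 48 h exposure; 96-well plates; endpoints linearly interpolated, else capped at highest concentration. The concentration for full growth arrest is given as TGI.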

Tests used:
Assay in all cases: growth of human tumour cells (NCI), 48 h
[1] = tested on: SK-MEL-2 melanoma
[2] = tested on: HCT-15 colon
[3] = tested on: NCI-H460 lung
[4] = tested on: LXFL 529 NSCLC
[5] = tested on: OVCAR-8 ovarian
[6] = tested on: K-562 leukemia
[7] = tested on: UACC-257 melanoma
[8] = tested on: SF-295 CNS
[9] = tested on: M14 melanoma
[10] = tested on: TK-10 renal
[11] = tested on: M19-MEL melanoma
[12] = tested on: SW-620 colon
[13] = tested on: NCI-H23 lung
[14] = tested on: MALME-3M melanoma
[15] = tested on: SNB-19 CNS
[16] = tested on: NCI-H522 lung
[17] = tested on: HOP-62 NSCLC
[18] = tested on: HL-60(TB) leukemia
[19] = tested on: EKVX NSCLC
[20] = tested on: HOP-92 NSCLC
[21] = tested on: KM12 colon
[22] = tested on: RXF 393 renal
[23] = tested on: OVCAR-3 ovarian
[24] = tested on: 786-0 renal
[25] = tested on: SK-MEL-5 melanoma
[26] = tested on: CAKI-1 renal
[27] = tested on: COLO 205 colon
[28] = tested on: LOX IMVI melanoma
[29] = tested on: UO-31 renal
[30] = tested on: UACC-62 melanoma
[31] = tested on: A549 NSCLC
[32] = tested on: MOLT-4 leukemia
[33] = tested on: HCC-2998 colon
[34] = tested on: SN12C renal
[35] = tested on: DMS 273 small cell lung
[36] = tested on: SK-OV-3 ovarian
[37] = tested on: ACHN renal
[38] = tested on: SF-268 CNS
[39] = tested on: KM20L2 colon
[40] = tested on: OVCAR-5 ovarian
[41] = tested on: DLD-1 colon
[42] = tested on: IGROV1 ovarian
[43] = tested on: SNB-78 CNS
[44] = tested on: XF 498 CNS
[45] = tested on: OVCAR-4 ovarian
[46] = tested on: DMS 114 small cell lung
[47] = tested on: CCRF-CEM leukemia
[48] = tested on: RPMI-8226 leukemia
[49] = tested on: SNB-75 CNS
[50] = tested on: SK-MEL-28 melanoma
[51] = tested on: U251 CNS
[52] = tested on: BT-549 breast
[53] = tested on: PC-3 prostate
[54] = tested on: NCI/ADR-RES ovarian
[55] = tested on: MDA-MB-435
[56] = tested on: A498 renal
[57] = tested on: SR leukemia
[58] = tested on: HCT-116 colon
[59] = tested on: HS 578T breast
[60] = tested on: MCF7 breast
[61] = tested on: MDA-MB-231 breast
[62] = tested on: NCI-H226 lung
[63] = tested on: DU-145 prostate
[64] = tested on: MDA-N
[65] = tested on: HT29 colon
[66] = tested on: T-47D breast
[67] = tested on: SF-539 CNS

## CN1CCN(c2nc(N)c(Br)c(Cl)n2)CC1
[1]
  TGI: > 100 µM
[2]
  TGI: > 100 µM
[3]
  TGI: > 100 µM
[4]
  TGI: > 100 µM
[5]
  TGI: > 100 µM
[6]
  TGI: > 100 µM
[7]
  TGI: > 100 µM
[8]
  TGI: > 100 µM
[9]
  TGI: > 100 µM
[10]
  TGI: > 100 µM
[11]
  TGI: > 100 µM
[12]
  TGI: > 100 µM
[13]
  TGI: > 100 µM
[14]
  TGI: > 100 µM
[15]
  TGI: > 100 µM
[16]
  TGI: > 100 µM
[17]
  TGI: > 100 µM
[18]
  TGI: > 100 µM
[19]
  TGI: > 100 µM
[20]
  TGI: > 100 µM
[21]
  TGI: > 100 µM
[22]
  TGI: > 100 µM
[23]
  TGI: > 100 µM
[24]
  TGI: > 100 µM
[25]
  TGI: > 100 µM
[26]
  TGI: > 100 µM
[27]
  TGI: > 100 µM
[28]
  TGI: > 100 µM
[29]
  TGI: > 100 µM
[30]
  TGI: > 100 µM
[31]
  TGI: > 100 µM
[32]
  TGI: > 100 µM
[33]
  TGI: > 100 µM
[34]
  TGI: > 100 µM
[35]
  TGI: > 100 µM
[36]
  TGI: > 100 µM
[37]
  TGI: > 100 µM
[38]
  TGI: > 100 µM
[39]
  TGI: > 100 µM
[40]
  TGI: > 100 µM
[41]
  TGI: > 100 µM
[42]
  TGI: > 100 µM
[43]
  TGI: > 100 µM
[44]
  TGI: > 100 µM
[45]
  TGI: > 100 µM
[46]
  TGI: > 100 µM
[47]
  TGI: > 100 µM
[48]
  TGI: > 100 µM
[49]
  TGI: > 100 µM
[50]
  TGI: > 100 µM

## COc1cccc2c1C(=O)c1c(O)c3c(c(O)c1C2=O)C[C@@](O)(C(=O)CO)CC3OC1CC(NCCOCC(OC(C)=O)OC(C)=O)C(O)C(C)O1 (some centres undefined)
[2]
  TGI: 0.0144 µM
[4]
  TGI: 12.2 µM
[6]
  TGI: > 100 µM
[10]
  TGI: > 100 µM
[12]
  TGI: 1.71 µM
[15]
  TGI: > 100 µM
[17]
  TGI: 0.009 µM
[18]
  TGI: > 100 µM
[24]
  TGI: 3.16 µM
[26]
  TGI: > 100 µM
[31]
  TGI: > 100 µM
[34]
  TGI: 1.32 µM
[51]
  TGI: 1.23 µM
[36]
  TGI: 47.9 µM
[41]
  TGI: 0.38 µM
[42]
  TGI: 3.04 µM
[45]
  TGI: 31.1 µM
[47]
  TGI: > 100 µM

## COc1ccc(N2C(=O)/C(=C/c3ccc(N(CCC#N)CCC#N)cc3)N=C2c2ccccc2)cc1
[52]
  TGI: > 100 µM
[1]
  TGI: > 100 µM
[2]
  TGI: > 100 µM
[3]
  TGI: > 100 µM
[5]
  TGI: > 100 µM
[6]
  TGI: > 100 µM
[7]
  TGI: > 100 µM
[8]
  TGI: > 100 µM
[9]
  TGI: > 100 µM
[10]
  TGI: > 100 µM
[53]
  TGI: > 100 µM
[54]
  TGI: > 100 µM
[12]
  TGI: > 100 µM
[14]
  TGI: > 100 µM
[15]
  TGI: > 100 µM
[17]
  TGI: > 100 µM
[18]
  TGI: > 100 µM
[19]
  TGI: > 100 µM
[55]
  TGI: > 100 µM
[20]
  TGI: > 100 µM
[21]
  TGI: > 100 µM
[22]
  TGI: > 100 µM
[56]
  TGI: > 100 µM
[23]
  TGI: > 100 µM
[24]
  TGI: > 100 µM
[25]
  TGI: > 100 µM
[26]
  TGI: > 100 µM
[57]
  TGI: > 100 µM
[27]
  TGI: > 100 µM
[28]
  TGI: > 100 µM
[58]
  TGI: > 100 µM
[29]
  TGI: > 100 µM
[30]
  TGI: > 100 µM
[59]
  TGI: > 100 µM
[31]
  TGI: > 100 µM
[60]
  TGI: > 100 µM
[32]
  TGI: > 100 µM
[61]
  TGI: > 100 µM
[62]
  TGI: > 100 µM
[34]
  TGI: > 100 µM
[51]
  TGI: > 100 µM
[36]
  TGI: > 100 µM
[63]
  TGI: > 100 µM
[64]
  TGI: > 100 µM
[37]
  TGI: > 100 µM
[38]
  TGI: > 100 µM
[40]
  TGI: > 100 µM
[42]
  TGI: > 100 µM
[65]
  TGI: > 100 µM
[45]
  TGI: > 100 µM
[66]
  TGI: > 100 µM
[67]
  TGI: > 100 µM
[48]
  TGI: > 100 µM
[49]
  TGI: > 100 µM
[50]
  TGI: > 100 µM

## Cc1[nH]c2nccn2c(=O)c1CCO
[52]
  TGI: > 10 µM
[2]
  TGI: > 10 µM
[3]
  TGI: > 10 µM
[5]
  TGI: > 10 µM
[6]
  TGI: > 10 µM
[7]
  TGI: > 10 µM
[8]
  TGI: > 10 µM
[9]
  TGI: > 10 µM
[10]
  TGI: > 10 µM
[53]
  TGI: > 10 µM
[54]
  TGI: > 10 µM
[12]
  TGI: > 10 µM
[13]
  TGI: > 10 µM
[14]
  TGI: > 10 µM
[15]
  TGI: > 10 µM
[17]
  TGI: > 10 µM
[18]
  TGI: > 10 µM
[19]
  TGI: > 10 µM
[55]
  TGI: > 10 µM
[20]
  TGI: > 10 µM
[21]
  TGI: > 10 µM
[22]
  TGI: > 10 µM
[56]
  TGI: > 10 µM
[23]
  TGI: > 10 µM
[24]
  TGI: > 10 µM
[25]
  TGI: > 10 µM
[26]
  TGI: > 10 µM
[57]
  TGI: > 10 µM
[27]
  TGI: > 10 µM
[28]
  TGI: > 10 µM
[58]
  TGI: > 10 µM
[29]
  TGI: > 10 µM
[30]
  TGI: > 10 µM
[59]
  TGI: > 10 µM
[31]
  TGI: > 10 µM
[60]
  TGI: > 10 µM
[32]
  TGI: > 10 µM
[61]
  TGI: > 10 µM
[62]
  TGI: > 10 µM
[34]
  TGI: > 10 µM
[51]
  TGI: > 10 µM
[36]
  TGI: > 10 µM
[63]
  TGI: > 10 µM
[64]
  TGI: > 10 µM
[37]
  TGI: > 10 µM
[38]
  TGI: > 10 µM
[40]
  TGI: > 10 µM
[42]
  TGI: > 10 µM
[65]
  TGI: > 10 µM
[45]
  TGI: > 10 µM
[66]
  TGI: > 10 µM
[47]
  TGI: > 10 µM
[67]
  TGI: > 10 µM
[48]
  TGI: > 10 µM
[49]
  TGI: > 10 µM
[50]
  TGI: > 10 µM
